Assay results taken from the METLIN SMRT retention time set (Domingo-Almenara et al. 2019).

Assay: gradient 5% acetonitrile 3 min, to 50% in 2 min, to 85% in 15 min, held 3 min, 100 µL/min
Details: column: Zorbax Extend-C18 2.1 x 50 mm; eluents: water / acetonitrile, 0.1% formic acid
Method in brief: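 A Zorbax Extend-C18 column (2.1 × 50 mm, 1.8 μm) run at 100 μL/min with water and acetonitrile, both containing 0.1% formic acid, separated mixtures of ~100 pure standards. The HPLC was coupled to a quadrupole time-of-flight mass spectrometer operated in positive and negative ionization mode, with dead and dwell volumes of 40 μL and 900 μL. Each retention time was taken from a computationally picked adduct peak that was then manually inspected.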
Molecule `CCOC(=O)c1cnc(N2CCN(c3ccc(Cl)cc3)CC2)nc1C` has an RP-LC retention time of 1380 s. `CCOc1ccc(NC(=O)c2cnc(N3CCN(C4CCCCC4)CC3)nc2N)cc1` showed an RP-LC retention time of 662 s. With `CCN1CCC2(CC1)NC(=O)N(CC(=O)Nc1ccc(OC(F)(F)F)cc1)C2=O` the RP-LC retention time was 582 s. Work on `Cc1c(Cl)cccc1NC(=O)C1CCN(S(=O)(=O)c2ccc3c(c2)NC(=O)C(C)O3)CC1` (centres undefined) yielded an RP-LC retention time of 858 s. For `CCc1cc(-c2csc(S(=O)(=O)N3CCc4ccccc4C3)c2)on1`, the RP-LC retention time was 1110 s. In the case of `CCOc1cccc2cc(C(=O)Nc3ccc(S(N)(=O)=O)cc3)oc12`, the RP-LC retention time is reported as 747 s. In the case of `Cc1nnc(N2CCCC(C(=O)Nc3ccccc3Cl)C2)c2nn(-c3ccccc3)c(C)c12` (centres undefined), the RP-LC retention time is reported as 767 s. `CNC(=O)C1CCCN(c2nc3ncn(CC(=O)NCc4ccc5c(c4)OCO5)c(=O)c3s2)C1` (centres undefined) gave an RP-LC retention time of 618 s. `Cc1cc(C)cc(NC(=O)Cn2nc(N3CCCC(C)C3)c3ccccc3c2=O)c1` (centres undefined) showed an RP-LC retention time of 1240 s. Molecule `Cc1ccc(NC(=O)Cn2nc3c(Oc4ccccc4C)nccn3c2=O)cc1` has an RP-LC retention time of 853 s. Molecule `CCn1c(C(=O)NCCC2=CCCCC2)cc2sc(Cl)cc21` has an RP-LC retention time of 1310 s. Work on `Cc1cc(OCC(=O)NCc2ccc3c(c2)OCO3)nc(N2CCCCC2)n1` yielded an RP-LC retention time of 592 s. Work on `CC(C)CC(=O)N1C[C@H](c2nc(-c3ccccc3)no2)[C@@H](C)C1` yielded an RP-LC retention time of 951 s. With `CN(C)[C@@H]1CN(Cc2ccccc2C#N)C[C@H]1CO` the RP-LC retention time was 518 s. `COc1ccccc1CNC(=O)C1CCc2nc(N3CCOCC3)ncc2C1` (centres undefined) showed an RP-LC retention time of 719 s. `O=C(Cc1cccc(F)c1)N1CCc2nc(-c3ccc(Cl)cc3)ncc2C1` gave an RP-LC retention time of 1060 s. For `Cc1nc(-c2csc(S(=O)(=O)NC3CCCCCC3)c2)sc1C`, the RP-LC retention time was 1150 s. In the case of `COC(=O)c1cn(CC(=O)Nc2ccc(Br)cc2F)c2nc(C)ccc2c1=O`, the RP-LC retention time is reported as 775 s. For `O=C(CNC(=O)c1ccc2c(c1)OCO2)Nc1nc2ccccc2[nH]1`, the RP-LC retention time was 611 s. Work on `CC(C)Cc1nn(-c2ccccc2)cc1CN1CC(=O)NCC12CCCC2` yielded an RP-LC retention time of 720 s. `CC1CCCC(NC(=O)Cn2nc(Cc3ccncc3)c3ccccc3c2=O)C1C` (centres undefined) showed an RP-LC retention time of 655 s. Molecule `O=C(COc1ccccc1F)NCCn1nc(-c2ccco2)ccc1=O` has an RP-LC retention time of 675 s. In the case of `Cc1cccc(NC(=O)N(C)CCc2noc(COc3ccccc3)n2)c1C`, the RP-LC retention time is reported as 913 s. `COCCN1CCC2(CCC1=O)CCN(C(=O)Nc1ccc(Br)cc1)CC2` showed an RP-LC retention time of 740 s. Work on `CCc1nnc2c(=O)n(CC(=O)NCc3cccc(F)c3)c3cccnc3n12` yielded an RP-LC retention time of 710 s. `CCOC(=O)c1nn(-c2ccccc2C)c(=O)cc1NCc1ccc2c(c1)OCO2` showed an RP-LC retention time of 874 s. In the case of `COc1ccc(C(C)NC(=O)C2=C3CCCN3c3ccc(F)cc3S2(=O)=O)cc1OC` (centres undefined), the RP-LC retention time is reported as 821 s. With `CCNC(=O)C1CCCN(c2nc3ncn(CC(=O)Nc4ccc(Cl)cc4F)c(=O)c3s2)C1` (centres undefined) the RP-LC retention time was 709 s. For `COc1ccc(-c2nc3cccnc3n2C2CCN(C(=O)NC(C)C)C2)cc1` (centres undefined), the RP-LC retention time was 667 s. Molecule `O=C(C1CCN(S(=O)(=O)c2ccc(-c3noc(-c4ccncc4)n3)cc2)CC1)N1CCCC1` has an RP-LC retention time of 814 s. Work on `COC(=O)c1ccc(C(=O)Nc2nnc(-c3cccs3)o2)cc1` yielded an RP-LC retention time of 710 s. Molecule `CCCN1CCN(C(=O)CCc2c(C)c(C(=O)OCC)c(C)n2CC)CC1` has an RP-LC retention time of 645 s. Molecule `COc1ccc(-c2ncc3c(n2)CCN(C(=O)Nc2c(F)cccc2F)C3)cc1` has an RP-LC retention time of 658 s. Molecule `O=c1n(Cc2ccccc2Cl)nc2ccc(S(=O)(=O)N3CCCC3)cn12` has an RP-LC retention time of 866 s. In the case of `COCCNc1nc(-c2ccc(C(C)(C)C)cc2)nc2ccccc12`, the RP-LC retention time is reported as 790 s. Molecule `Brc1ccc(-c2noc(Cc3nnc(-c4ccccc4)o3)n2)cc1` has an RP-LC retention time of 1110 s. For `CC1=NS(=O)(=O)N(C)C=C1C(=O)OCc1ccccc1Cl`, the RP-LC retention time was 951 s. Molecule `CC(C)(C)NC(=O)N1CCC(CNC(=O)C2CCN(S(C)(=O)=O)CC2)CC1` has an RP-LC retention time of 599 s. `COc1ccc(NC(=O)[C@@H]2c3ccccc3C(=O)N3CCCC[C@@H]23)cc1OC` showed an RP-LC retention time of 727 s. `O=C(c1cc(-c2ccccc2)n[nH]1)N1CCC2(CC1)N=C(c1ccccc1)NO2` gave an RP-LC retention time of 785 s. `O=C(NCC1CCCO1)c1cn(-c2cc(N3CCSCC3)ncn2)cn1` (centres undefined) showed an RP-LC retention time of 717 s. For `CCOc1ccc(C(=O)N2CCCC2c2nc(-c3ccc(OC)c(OC)c3)no2)cc1` (centres undefined), the RP-LC retention time was 927 s. With `CCOc1ccc(C2Cn3nnc(-c4nc(-c5ccc(C)cc5)no4)c3CO2)cc1` (centres undefined) the RP-LC retention time was 1250 s. For `Cn1c(=O)c2cc(C(=O)NCc3cccc(C(F)(F)F)c3)nn2c2ccccc21`, the RP-LC retention time was 945 s. `CCS(=O)(=O)N1CCCc2cc(C(=O)NC(C)c3ccccc3)ccc21` (centres undefined) gave an RP-LC retention time of 870 s. In the case of `O=c1n(CCOc2ccccc2)nc2c(S(=O)(=O)N3CCCC3)cccn12`, the RP-LC retention time is reported as 794 s. In the case of `COc1ccc(-c2cc(N3CCC(NC(=O)c4ccc5c(c4)OCO5)C3)n[nH]2)cc1` (centres undefined), the RP-LC retention time is reported as 690 s. For `Cn1c(=O)c2cc(C(=O)NCc3ccccc3C(F)(F)F)nn2c2ccccc21`, the RP-LC retention time was 940 s. Molecule `CCOc1ccc(Nc2c(C(=O)N3CCC(C)CC3)cnc3nc(C)ccc23)cc1` has an RP-LC retention time of 661 s. `CCN1C(=O)COc2cc(-c3noc(C(=O)NC4CCCCCC4)n3)ccc21` gave an RP-LC retention time of 1050 s. Work on `CC(=O)Nc1nc(-c2ccc3c(c2)NC(=O)C(C)O3)c(C)s1` (centres undefined) yielded an RP-LC retention time of 701 s. Molecule `Cc1cccc(-c2nc(N)n(C(=O)C3CC3)n2)c1` has an RP-LC retention time of 885 s. For `CC(=O)Nc1cc2c(cc1Sc1ccc(C)cc1)n(C)c(=O)n2C`, the RP-LC retention time was 785 s. For `COc1ccc(CN2CCC(NC(=O)c3ccc(C#N)cc3)C2)cn1` (centres undefined), the RP-LC retention time was 566 s. `Cc1ccccc1-c1noc(C2CCCN2S(=O)(=O)c2ccc3c(c2)CCCC3)n1` (centres undefined) gave an RP-LC retention time of 1340 s. Work on `Cc1ccc(N2CCN(Cc3nc(-c4ccc(N5CCCC(C)C5)nc4)no3)CC2)cc1` (centres undefined) yielded an RP-LC retention time of 1060 s. With `CCCN1C(=O)COc2ccc(-c3noc(CNC(=O)c4ccc(C)cc4)n3)cc21` the RP-LC retention time was 930 s. For `COc1ccc(-c2noc(Cn3c(=O)n(C(C)C)c(=O)c4ccccc43)n2)cc1`, the RP-LC retention time was 1110 s. For `Cc1cc(=O)n(CC(=O)Nc2ccccc2)c(N)n1`, the RP-LC retention time was 580 s. In the case of `CN(Cc1ccco1)C(=O)c1nc2ccccn2c1-c1ccc(F)cc1`, the RP-LC retention time is reported as 705 s. With `CCCCn1cnc2c(-c3ccccc3)cn(CC(=O)NCc3ccco3)c2c1=O` the RP-LC retention time was 922 s. `O=C(NCCCN1CCCCCC1)c1nnc(-c2ccc(S(=O)(=O)N3CCCC3)cc2)o1` gave an RP-LC retention time of 648 s. `O=C(CSc1nccc(N2CCCC2)n1)N1CCN(c2ccccc2F)CC1` showed an RP-LC retention time of 677 s. With `CCN1C(=O)CCc2cc(NS(=O)(=O)Cc3ccccc3Cl)ccc21` the RP-LC retention time was 803 s. For `Cn1ncc2c(N3CCOCC3)nc(C(=O)NCc3ccc(F)cc3)nc21`, the RP-LC retention time was 708 s. `COc1ccc(N2CCN(C(=O)c3ccc(=O)n(CCN4CCCC4)c3)CC2)cc1` showed an RP-LC retention time of 586 s. With `COC(=O)c1cccc(NC(=O)NCCCn2c(C(F)(F)F)nc3cccnc32)c1` the RP-LC retention time was 773 s. With `O=C(CN1CCN(c2ccccn2)CC1)N1c2ccccc2CCc2ccccc21` the RP-LC retention time was 636 s. In the case of `O=c1c(=O)n(-c2ccccc2)ccn1Cc1nc(-c2ccccc2)no1`, the RP-LC retention time is reported as 777 s. With `CCc1ccc(CCN2C(=O)c3ccccc3C2=O)nc1` the RP-LC retention time was 667 s. `COc1ccc(OC)c(NC(=O)N2CCC3(CC2)N=C(c2cccc(F)c2)C(=O)N3)c1` gave an RP-LC retention time of 856 s. For `Cc1ccc(N2CC(c3nc(-c4ccc5c(c4)OCO5)no3)CC2=O)cc1F` (centres undefined), the RP-LC retention time was 986 s. `Cc1ccc(NC(=O)Cc2cccc3ccccc23)cc1N1CCCC1=O` showed an RP-LC retention time of 753 s. `CCOC(=O)c1nc(NCc2ccc(OC)cc2OC)c2ccccc2n1` gave an RP-LC retention time of 768 s. Work on `COc1ccc(C2(C)OC(c3cc(C)nc4ccccc34)=NN2C(C)=O)c(OC)c1` (centres undefined) yielded an RP-LC retention time of 818 s. For `Cc1oc(C2CCN(C(=O)Nc3ccccc3F)CC2)nc1C(=O)N1CCCC1`, the RP-LC retention time was 753 s. In the case of `CC(C)Cn1nc2n(c1=O)CCN(S(=O)(=O)c1ccc(C(C)(C)C)cc1)CC2`, the RP-LC retention time is reported as 631 s. In the case of `CCn1c(=O)c2c(cc(C)n2C)n(CC(=O)Nc2cc(OC)cc(OC)c2)c1=O`, the RP-LC retention time is reported as 779 s. With `O=C(NCc1csc(-c2cccs2)n1)C1CCN(C(=O)c2ccccc2F)CC1` the RP-LC retention time was 743 s. `Cc1cc(C(=O)NC2CCCC2)c2cc(F)ccc2n1` gave an RP-LC retention time of 710 s. Work on `Cc1cccc(-c2noc(-c3nn(CC(=O)NC4CC4)c4ccccc34)n2)c1` yielded an RP-LC retention time of 1040 s. `CSc1ccc(-c2nc3ccc(Br)cn3c2NC2CCCCC2)cc1` showed an RP-LC retention time of 955 s. Work on `O=S(=O)(NCc1ccc(F)cc1Cl)c1c[nH]c2ncccc12` yielded an RP-LC retention time of 748 s. `COc1ccc(NC(=O)c2cc(S(=O)(=O)N3CCC(C)CC3)cn2C)c(OC)c1` gave an RP-LC retention time of 1020 s. For `CCC(C)NC(=O)C1CCN(S(=O)(=O)c2c(C)nn(-c3ccccc3)c2C)CC1` (centres undefined), the RP-LC retention time was 830 s. In the case of `COc1ccccc1N1CCN(C(=O)c2cn3cc(Cl)ccc3n2)CC1`, the RP-LC retention time is reported as 858 s. In the case of `O=C(NC1CCCCCCC1)c1nnc(-c2ccc(S(=O)(=O)N3CCCCC3)cc2)o1`, the RP-LC retention time is reported as 754 s. `CCOC(=O)c1ccc(NC(=O)Cn2c(=O)nc(N3CCCC(C)C3)c3ccccc32)cc1` (centres undefined) showed an RP-LC retention time of 872 s. With `Cc1nnc2cc(N3CCN(C(=O)Nc4cccc(Br)c4)CC3)cnn12` the RP-LC retention time was 562 s.
